Results from US7332501B2, “Indol-3-yl-carbonyl-spiro-piperidine derivatives as V1a receptor antagonists” (Hoffmann-La Roche Inc., priority 2005, dated 2008).
Structures can show the parent of a compound that is named as a salt.

molecular target: T1, human V1a receptor (Homo sapiens, UniProt P37288); assay: human V1a receptor binding (3H-Vasopressin SPA, HEK293 membranes); conditions: displacement of 4 nM 3H-Vasopressin, membranes of HEK293 cells transiently transfected with human V1a receptor; Ki from IC50 by Cheng-Prussoff
T1 construct: expressed in transfected cells; host or cells: HEK293 cells, transiently transfected; cell membranes
T1 sequence (P37288 whole entry): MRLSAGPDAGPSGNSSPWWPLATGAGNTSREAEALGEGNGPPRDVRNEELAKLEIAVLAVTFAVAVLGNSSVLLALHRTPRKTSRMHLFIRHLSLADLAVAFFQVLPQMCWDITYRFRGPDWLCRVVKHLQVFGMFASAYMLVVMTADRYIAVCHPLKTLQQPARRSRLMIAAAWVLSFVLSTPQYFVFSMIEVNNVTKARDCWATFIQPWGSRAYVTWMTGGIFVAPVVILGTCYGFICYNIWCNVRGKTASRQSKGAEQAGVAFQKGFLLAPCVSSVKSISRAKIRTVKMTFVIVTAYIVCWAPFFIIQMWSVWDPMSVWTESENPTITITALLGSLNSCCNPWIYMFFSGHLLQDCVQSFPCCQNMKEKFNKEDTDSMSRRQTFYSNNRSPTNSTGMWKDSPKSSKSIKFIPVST
How it was run: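 Transiently transfected HEK293 membranes on yttrium silicate SPA beads in Tris binding buffer (120 mM NaCl, 5 mM KCl, 2 mM CaCl2, 10 mM MgCl2). 3H-vasopressin added as 4 nM working solution; excess cold vasopressin set non-specific binding. 1 h at room temperature, then counting; Ki from fitted IC50 via Cheng-Prusoff.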

**Q.** Which Ki does the source give for `CN(C)C(=O)Cn1cc(C(=O)N2CCC3(CC2)OCc2ccccc23)c2ccc(Cl)cc21` [Example 206, 2-[6-Chloro-3-(1′H,3H-spiro[2-benzofuran-1,4′-piperidin]-1′-ylcarbonyl)-1H-indol-1-yl]-N,N-dimethylacetamide] here?
**A.** 0.5 nM

**Q.** Which Ki does the source give for `CCN(CC)C(=O)Cn1cc(C(=O)N2CCC3(CC2)OCc2ccccc23)c2ccc(Cl)cc21` [Example 207, 2-[6-Chloro-3-(1′H,3H-spiro[2-benzofuran-1,4′-piperidin]-1′-ylcarbonyl)-1H-indol-1-yl]-N,N-diethylacetamide] here?
**A.** 1.1 nM

**Q.** How did the Ki turn out when `O=C(c1cn(C(=O)N2CCCCC2)c2cc(Cl)ccc12)N1CCC2(CC1)OCc1ccccc12` [Example 208, 1′-{[6-Chloro-1-(piperidin-1-ylcarbonyl)-1H-indol-3-yl]carbonyl}-3H-spiro[2-benzofuran-1,4′-piperidine]] was run?
**A.** 2.6 nM

**Q.** `CC(C)(C)OC(=O)Cn1cc(C(=O)N2CCC3(CC2)OCc2ccccc23)c2ccc(Cl)cc21` [Example 209, tert-Butyl[6-chloro-3-(1′H,3H-spiro[2-benzofuran-1,4′-piperidin]-1′-ylcarbonyl)-1H-indol-1-yl]acetate] was tested. Which Ki did it give?
**A.** 1 nM

**Q.** How did the Ki turn out when `CN(C)CCn1cc(C(=O)N2CCC3(CC2)OCc2ccccc23)c2ccc(Cl)cc21` [Example 210, 2-[6-Chloro-3-(1′H,3H-spiro[2-benzofuran-1,4′-piperidin]-1′-ylcarbonyl)-1H-indol-1-yl]-N,N-dimethylethanamine] was run?
**A.** 1 nM

**Q.** How did the Ki turn out when `O=C(Cn1cc(C(=O)N2CCC3(CC2)OCc2ccccc23)c2ccc(Cl)cc21)N1CCNCC1` [Example 211, 1′-{[6-Chloro-1-(2-oxo-2-piperazin-1-ylethyl)-1H-indol-3-yl]carbonyl}-3H-spiro[2-benzofuran-1,4′-piperidine]] was run?
**A.** 0.8 nM

**Q.** For `CN1CCN(C(=O)Cn2cc(C(=O)N3CCC4(CC3)OCc3ccccc34)c3ccc(Cl)cc32)CC1` [Example 212, 1′-({6-Chloro-1-[2-(4-methylpiperazin-1-yl)-2-oxoethyl]-1H-indol-3-yl}carbonyl)-3H-spiro[2-benzofuran-1,4′-piperidine]], which Ki is on record?
**A.** 1.2 nM

**Q.** With `Cc1cc2c(C(=O)N3CCC4(CC3)OCc3ccccc34)cn(CC(=O)N(C)C)c2cc1Cl` [Example 213, 2-[6-Chloro-5-methyl-3-(1′H,3H-spiro[2-benzofuran-1,4′-piperidin]-1′-ylcarbonyl)-1H-indol-1-yl]-N,N-dimethylacetamide] as the compound, how does the Ki read?
**A.** 3.3 nM

**Q.** Which Ki does the source give for `O=C(c1cn(C(=O)c2cccc(F)c2)c2cc(Cl)ccc12)N1CCC2(CC1)OCc1ccccc12` [Example 214] here?
**A.** 5.1 nM

**Q.** How did the Ki turn out when `O=C(c1cn(C(=O)c2ccccc2F)c2cc(Cl)ccc12)N1CCC2(CC1)OCc1ccccc12` [Example 215] was run?
**A.** 8.6 nM

**Q.** With `O=C(c1cn(C(=O)c2cc(F)cc(F)c2)c2cc(Cl)ccc12)N1CCC2(CC1)OCc1ccccc12` [Example 216] as the compound, how does the Ki read?
**A.** 3.5 nM

**Q.** How did the Ki turn out when `O=C(c1cn(C(=O)c2cccc(F)c2F)c2cc(Cl)ccc12)N1CCC2(CC1)OCc1ccccc12` [Example 217] was run?
**A.** 5.8 nM

**Q.** `O=C(c1cn(S(=O)(=O)c2cc(F)cc(F)c2)c2cc(Cl)ccc12)N1CCC2(CC1)OCc1ccccc12` [Example 218] was tested. Which Ki did it give?
**A.** 25.1 nM

**Q.** Which Ki does the source give for `O=C(c1cn(Cc2cc(F)cc(F)c2)c2cc(Cl)ccc12)N1CCC2(CC1)OCc1ccccc12` [Example 219] here?
**A.** 1.2 nM

**Q.** How did the Ki turn out when `O=C(c1cn(Cc2cccc(F)c2)c2cc(Cl)ccc12)N1CCC2(CC1)OCc1ccccc12` [Example 220] was run?
**A.** 1 nM

**Q.** Which Ki does the source give for `O=C(c1cn(-c2cc(F)cc(F)c2)c2cc(Cl)ccc12)N1CCC2(CC1)OCc1ccccc12` [Example 222] here?
**A.** 4 nM

**Q.** `O=C(c1cn(-c2cccc(F)c2)c2cc(Cl)ccc12)N1CCC2(CC1)OCc1ccccc12` [Example 223] was tested. Which Ki did it give?
**A.** 2.5 nM

**Q.** Which Ki does the source give for `O=C(Cn1cc(C(=O)N2CCC3(CC2)OCc2ccccc23)c2ccc(Cl)cc21)c1ccccc1F` [Example 224, 2-[6-Chloro-3-(1′H,3H-spiro[2-benzofuran-1,4′-piperidin]-1′-ylcarbonyl)-1H-indol-1-yl]-1-(2-fluorophenyl)ethanone] here?
**A.** 1.3 nM

**Q.** How did the Ki turn out when `O=C(c1cn(-c2ccccn2)c2cc(Cl)ccc12)N1CCC2(CC1)OCc1ccccc12` [Example 227] was run?
**A.** 3.8 nM

**Q.** With `O=C(c1cn(Cc2ccncc2)c2cc(Cl)ccc12)N1CCC2(CC1)OCc1ccccc12` [Example 228] as the compound, how does the Ki read?
**A.** 1.5 nM

**Q.** `O=C(Cn1cc(C(=O)N2CCC3(CC2)OCc2ccccc23)c2ccc(Cl)cc21)c1ccccn1` [Example 229, 2-[6-Chloro-3-(1′H,3H-spiro[2-benzofuran-1,4′-piperidin]-1′-ylcarbonyl)-1H-indol-1-yl]-1-pyridin-2-ylethanone] was tested. Which Ki did it give?
**A.** 1.6 nM

**Q.** With `O=C(c1cn(Cc2cccnc2)c2cc(Cl)ccc12)N1CCC2(CC1)OCc1ccccc12` [Example 230, 1′-{[6-Chloro-1-(pyridin-3-ylmethyl)-1H-indol-3-yl]carbonyl}-3H-spiro[2-benzofuran-1,4′-piperidine]] as the compound, how does the Ki read?
**A.** 1.7 nM

**Q.** `O=C(c1cn(Cc2ccccn2)c2cc(Cl)ccc12)N1CCC2(CC1)OCc1ccccc12` [Example 231, 1′-{[6-Chloro-1-(pyridin-2-ylmethyl)-1H-indol-3-yl]carbonyl}-3H-spiro[2-benzofuran-1,4′-piperidine]] was tested. Which Ki did it give?
**A.** 1.6 nM

**Q.** For `O=C(c1cn(CC2CN(Cc3ccccc3)CCO2)c2cc(Cl)ccc12)N1CCC2(CC1)OCc1ccccc12` (stereo not drawn) [Example 232, 1′-({1-[(4-Benzylmorpholin-2-yl)methyl]-6-chloro-1H-indol-3-yl}carbonyl)-3H-spiro[2-benzofuran-1,4′-piperidine]], which Ki is on record?
**A.** 5 nM

**Q.** How did the Ki turn out when `O=C(c1cn(Cc2cnccn2)c2cc(Cl)ccc12)N1CCC2(CC1)OCc1ccccc12` [Example 234, 1′-{[6-Chloro-1-(pyrazin-2-ylmethyl)-1H-indol-3-yl]carbonyl}-3H-spiro[2-benzofuran-1,4′-piperidine]] was run?
**A.** 1.8 nM

**Q.** How did the Ki turn out when `O=C(c1cn(Cc2cncnc2)c2cc(Cl)ccc12)N1CCC2(CC1)OCc1ccccc12` [Example 235] was run?
**A.** 1.4 nM

**Q.** `Cc1cc(Cn2cc(C(=O)N3CCC4(CC3)OCc3ccccc34)c3ccc(Cl)cc32)no1` [Example 236, 1′-({6-Chloro-1-[(5-methylisoxazol-3-yl)methyl]-1H-indol-3-yl}carbonyl)-3H-spiro[2-benzofuran-1,4′-piperidine]] was tested. Which Ki did it give?
**A.** 1.7 nM

**Q.** With `Cc1nc(Cn2cc(C(=O)N3CCC4(CC3)OCc3ccccc34)c3ccc(Cl)cc32)c(C2CC2)o1` [Example 237] as the compound, how does the Ki read?
**A.** 4 nM

**Q.** Which Ki does the source give for `Cn1cncc1Cn1cc(C(=O)N2CCC3(CC2)OCc2ccccc23)c2ccc(Cl)cc21` [Example 238] here?
**A.** 1.9 nM

**Q.** `Cc1cc(Cn2cc(C(=O)N3CCC4(CC3)OCc3ccccc34)c3ccc(Cl)cc32)on1` [Example 239, 1′-({6-Chloro-1-[(3-methylisoxazol-5-yl)methyl]-1H-indol-3-yl}carbonyl)-3H-spiro[2-benzofuran-1,4′-piperidine]] was tested. Which Ki did it give?
**A.** 2.3 nM

**Q.** For `Cc1cc(Cn2cc(C(=O)N3CCC4(CC3)OCc3ccccc34)c3ccc(Cl)cc32)nn1C` [Example 240], which Ki is on record?
**A.** 2 nM

**Q.** How did the Ki turn out when `Cc1noc(C)c1Cn1cc(C(=O)N2CCC3(CC2)OCc2ccccc23)c2ccc(Cl)cc21` [Example 241] was run?
**A.** 1.5 nM

**Q.** For `Cc1nc(Cn2cc(C(=O)N3CCC4(CC3)OCc3ccccc34)c3ccc(Cl)cc32)c(C)o1` [Example 242], which Ki is on record?
**A.** 2.2 nM

**Q.** For `O=C(c1cn(CC2(F)COC2)c2cc(Cl)ccc12)N1CCC2(CC1)OCc1ccccc12` [Example 243, 1′-({6-Chloro-1-[(3-fluorooxetan-3-yl)methyl]-1H-indol-3-yl}carbonyl)-3H-spiro[2-benzofuran-1,4′-piperidine]], which Ki is on record?
**A.** 1.4 nM

**Q.** For `COCC1(Cn2cc(C(=O)N3CCC4(CC3)OCc3ccccc34)c3ccc(Cl)cc32)CC1` [Example 244, 1′-[(6-Chloro-1-{[1-(methoxymethyl)cyclopropyl]methyl}-1H-indol-3-yl)carbonyl]-3H-spiro[2-benzofuran-1,4′-piperidine]], which Ki is on record?
**A.** 2.6 nM

**Q.** Which Ki does the source give for `N#CCC1(Cn2cc(C(=O)N3CCC4(CC3)OCc3ccccc34)c3ccc(Cl)cc32)CC1` [Example 245, (1-{[6-Chloro-3-(1′H,3H-spiro[2-benzofuran-1,4′-piperidin]-1′-ylcarbonyl) -1H-indol-1-yl]methyl}cyclopropyl)acetonitrile] here?
**A.** 1.7 nM

**Q.** Which Ki does the source give for `O=C(c1cn(CCC2CCOCC2)c2cc(Cl)ccc12)N1CCC2(CC1)OCc1ccccc12` [Example 246, 1′-({6-Chloro-1-[2-(tetrahydro-2H-pyran-4-yl)ethyl]-1H-indol-3-yl}carbonyl)-3H-spiro[2-benzofuran-1,4′-piperidine]] here?
**A.** 1.9 nM

**Q.** With `CC(C)(C)OC(=O)N1CCOC(Cn2cc(C(=O)N3CCC4(CC3)OCc3ccccc34)c3ccc(Cl)cc32)C1` (stereo not drawn) [Example 247, tert-Butyl 2-{[6-chloro-3-(1′H,3H-spiro[2-benzofuran-1,4′-piperidin]-1′-ylcarbonyl)-1H-indol-1-yl]methyl}morpholine-4-carboxylate] as the compound, how does the Ki read?
**A.** 2.3 nM

**Q.** Which Ki does the source give for `O=C(c1cn(CC2CNCCO2)c2cc(Cl)ccc12)N1CCC2(CC1)OCc1ccccc12` (stereo not drawn) [Example 248, 1′-{[6-Chloro-1-(morpholin-2-ylmethyl)-1H-indol-3-yl]carbonyl}-3H-spiro[2-benzofuran-1,4′-piperidine]hydrochloride] here?
**A.** 1.5 nM

**Q.** `CN(C)CCNC(=O)Cn1cc(C(=O)N2CCC3(CC2)OCc2ccccc23)c2ccc(Cl)cc21` [Example 249, 2-[6-Chloro-3-(1′H,3H-spiro[2-benzofuran-1,4′-piperidin]-1′-ylcarbonyl)-1H-indol-1-yl]-N-[2-(dimethylamino)ethyl]acetamide] was tested. Which Ki did it give?
**A.** 2.4 nM

**Q.** How did the Ki turn out when `NC(=O)Cn1cc(C(=O)N2CCC3(CC2)OCc2ccccc23)c2ccc(Cl)cc21` [Example 250, 2-[6-Chloro-3-(1′H,3H-spiro[2-benzofuran-1,4′-piperidin]-1′-ylcarbonyl)-1H-indol-1-yl]acetamide] was run?
**A.** 4.1 nM

**Q.** With `CNCCNC(=O)Cn1cc(C(=O)N2CCC3(CC2)OCc2ccccc23)c2ccc(Cl)cc21` [Example 251, 2-[6-Chloro-3-(1′H,3H-spiro[2-benzofuran-1,4′-piperidin]-1′-ylcarbonyl)-1H-indol-1-yl]-N-[2-(methylamino)ethyl]acetamide] as the compound, how does the Ki read?
**A.** 2.1 nM
